# Source: patent US10308631B2, “Selective anti-cancer compounds” (NATIONAL UNIVERSITY OF SINGAPORE, priority 2015, dated 2019)
# Assays:
# [1] = system: caspase-3/7 activity in oncogene-transformed human fibroblast BJ cells; experiment: Caspase-3/7 Glo assay; format: cell-based; conditions: 2.5 and 5 μM, 48 h
# Experimental: FIGS. 5B, C provide a representation of an immunoblot analysis to examine the PARP or caspase-3 cleavage (B) and a histogram showing Caspase-3/7 activities, plotted as fold induction compared to DMSO-treated cells (C). BJ normal and transformed cells were treated with Compound 1 (a131) for 48 h. Cells were harvested and total lysates were analysed by detecting cleaved PARP or caspase-3 or caspase-3/7 activities as markers for apoptotic induction. […] Student's t-test was performed to determine the statistical significance (**=p<0.001, ***=p<0.0001, n.s.=no significance).
# Whether Compound 1 (a131)-induced cancer cell-lethality was mediated by apoptosis or non-apoptotic programmed cell death was determined. For this purpose, isogenic non-transformed and oncogene-transformed human fibroblast BJ cell lines were cultured in DMEM supplemented with 10% FBS. The cells were treated with Compound 1 (2.5 μM and 5 μM, DMSO). 48 h after treatment, total cell lysates were prepared for immunoblot analysis using antibodies against cleaved PARP and cleaved caspase-3, well-known markers for apoptosis. In addition, a fraction of total cell lysates was also subjected to Caspase-3/7 Glo (Promega) assay to measure the combined activity of caspase 3/7. This was determined using caspase-Glo 3/7 Assay Kit (Promega) and its activity was normalized to a number of viable cells as determined by MTT assay.
# [2] = system: HeLa cells (mitotic spindles, β-tubulin/DAPI); experiment: Immunofluorescence analysis of mitotic spindles and chromosomes; format: cell-based, human; conditions: 6 h, Compound 1 2.5 μM, CQ 15 or 25 μM
# Experimental: HeLa cells, treated with Compound 1 (a131) at 2.5 μM (FIG. 3b), chloroquine (CQ) at 15 μM (FIG. 3c) or 25 μM (FIG. 3d), or DMSO (FIG. 3a) for 6 h, were fixed in methanol and subjected to immunofluorescence analysis using antibodies against β-tubulin to visualize proper formation of mitotic spindles. The condensed mitotic chromosomes were visualized by counterstaining with DAPI. Only Compound 1 (a131)-treated HeLa cells arrested in mitosis with misaligned chromosomes and disorganized spindles (FIG. 3b). The bars in FIGS. 3a-d represent 5 μm in length.
# To confirm the inhibitory mitotic progression ability, HeLa cervical cancer cells as cultured above were treated with Compound 1 (2.5 μM, DMSO), CQ (15 or 25 μM, DMSO) or DMSO for 6 h. The treated cells were fixed in methanol and subjected to immunofluorescence analysis using antibodies against β-tubulin (Abcam, Cat#ab52623) to visualize proper formation of mitotic spindles. The condensed mitotic chromosomes were visualized by counterstaining with DAPI.
# [3] = system: isogenic non-transformed (normal) BJ cells; experiment: PI staining and FACS analysis, sub-G1 cell death; format: cell-based, human; conditions: 48 h
# Experimental: FIG. 5A is a histogram showing the ability of Compound 1 (a131) and its derivatives Compound 2 (a156), Compound 16 (b5), Compound 17 (b9), all in Group 1; Compound 29 (a219), Compound 13 (b12), Compound 11 (b15), Compound 12 (b16), Compound 25 (a166), all in Group 2; and Compound 3 (a159) from Group 3, to induce cancer selective cell death. Isogenic non-transformed (normal) and oncogene-transformed BJ cells were treated with each compound for 48 h and cells were stained with propidium iodide (PI) and subjected to FACS analysis. The percentage of cells in sub-G1 phase is indicative of the extent of cell death. […] In contrast, the ability of the compounds in Groups 2 and 3 to induce cancer selective cell death was markedly compromised (or reduced).
# The Compounds 25 (a166) and 3 (a159) were selected from Group 2 and Group 3, respectively. Isogenic non-transformed normal and oncogene-transformed BJ cells were treated with or without 0.3 μM or 0.6 μM Compound 3 (a159) alone or together with 1.25 μM Compound 25 (a166) for 48 h. Cells were stained with propidium iodide (PI) and subjected to FACS analysis.
# Isogenic non-transformed and oncogene-transformed human fibroblast BJ cell lines were cultured in DMEM supplemented with 10% FBS. The cells were treated with Compound 1 (2.5 μM, DMSO). 48 h after treatment, the cells were fixed with ethanol at −30° C. overnight and stained with 20 μg/mL propidium iodide (PI) and 10 μg/mL RNase A for 30 min. These cells were then subjected to flow cytometry (FACS) analysis using MACSQuant (Miltenyi Biotec) to count the percentage of apoptotic cells in sub-G1 peak.
# The above procedure was repeated for Group 1 Compounds 2, 16 and 17, Group 2 Compounds 29, 13, 11, 12 and 25 at a concentration of 10 μM, and Group 3 Compound 3 at a concentration of 5 μM.
# Isogenic non-transformed normal and oncogene-transformed BJ cells were cultured as in Biology Example 3. The cells were treated with a combination of Compound 3 (Group 3, at a concentration of 0.3 μM or 0.6 μM), and Compound 25 (Group 2, at a concentration of 1.25 μM) for 48 hours. Controls using DMSO, Compound 3 and Compound 25 alone (at the concentrations mentioned above) were also performed.
# [4] = system: HCT-15 tumour sections; experiment: Immunofluorescence analysis of xenograft tumour sections; format: in vivo, mice; conditions: 80 mg/kg, 12 days, vs control vehicle
# Experimental: A, B: is a graphical representation of tumour volumes estimated periodically as indicated. Mice bearing established tumour xenografts using HCT15 or MDA-MB-231 cells were treated orally (PO) or intraperitoneally (IP) twice a day with the indicated doses of Compound 1 or Compound 16 for 12 or 15 days. Paclitaxel (PTX) was given intravenously at dose of 40 mg/kg, 3 times every 4 days. Error bars show ±S.D. from mean tumour volumes obtained from 6 mice. Student's t-test was performed to determine the statistical significance (*=p<0.005). C: is a bar graph showing quantification of cells (n>100 per condition) with misaligned chromosomes and multipolar mitotic-spindles. […] tumour sections treated with Compound 16 (80 mg/kg) or control vehicle for 12 days were stained with anti-β-tubulin antibodies and DAPI. The percentage of cells with misaligned chromosomes and multipolar mitotic-spindles was quantified and plotted with mean values±S.D.
# To confirm the antimitotic efficacy of Compound 16 (b5) in vivo, immunofluorescence analysis of HCT-15 tumor sections treated with Compound 16 (80 mg/kg) or control vehicle for 12 days were stained with anti-β-tubulin antibodies and DAPI.
# [5] = Aqueous solubility; format: physicochemical; conditions: compared with Compound 1
smiles,measurement,setting,value
"N#C/C(=C\c1cccc2cnccc12)c1c[nH]c2ccccc12 [Compound 1, (Z)-2-(1H-indol-3-yl)-3-(isoquinolin-5-yl)acrylonitrile]",caspase-3/7 activity,[1],significant induction of caspase-3/7 activity
same,"mitotic arrest, chromosome alignment and mitotic spindles",[2],arrested in mitosis with massively misaligned chromosomes and disorganized mitotic spindles
"N#C/C(=C\c1cccc2ncccc12)c1c[nH]c2ccccc12 [Compound 3, (Z)-2-(1H-indol-3-yl)-3-(quinolin-5-yl)acrylonitrile]",cell death (population of cells in sub-G1),[3]; normal BJ cells (FIG. 5A),significantly induced cell death
same,cell death,"[3]; Compound 3 0.3 or 0.6 μM, Compound 25 1.25 μM, alone or in combination",did not lead to a significant increase in cell death
"CN1CCN(CC(=O)n2cc(/C(C#N)=C/c3cccc4cnccc34)c3ccccc32)CC1 [Compound 16, (Z)-3-(isoquinolin-5-yl)-2-(1-(2-(4-methylpiperazin-1-yl)acetyl)-1H-indol-3-yl)acrylonitrile]",cancer cells with misaligned chromosomes and multipolar mitotic-spindles,[4],significantly increased the number of cancer cells harbouring massively misaligned chromosomes with multipolar mitotic-spindles
same,aqueous solubility,[5],improved aqueous solubility
